Experimental data taken from patent US20200275661A1 (published 2020).

SMILES | melting point
Cc1cc(C(Oc2ccc3ncccc3c2)c2ccccc2)no1 (stereo not shown) | 108 to 110 °C
c1ccc(C(Oc2ccc3ncccc3c2)c2ncco2)cc1 (stereo not shown) | 122 to 124 °C
Cc1cnc2ccc(OC(c3ccc(C#N)cn3)c3ncco3)cc2c1 (stereo not shown) | 168 to 172 °C
c1ccc(C(Oc2ccc3ncccc3c2)c2ccon2)cc1 (stereo not shown) | 126 to 128 °C
c1ccc(C(Oc2ccc3ncccc3c2)c2cnco2)cc1 (stereo not shown) | 110 to 113 °C
Fc1ccc(C(Oc2ccc3ncc(/C=N/OCC(F)(F)F)cc3c2)c2nnco2)nc1 (stereo not shown) | 118 to 120 °C
Cc1noc(C(Oc2ccc3ncccc3c2)c2ccc(F)cn2)n1 (stereo not shown) | 79 to 81 °C
c1ccc(C(Oc2ccc3nccnc3c2)c2nnco2)cc1 (stereo not shown) | 155 to 157 °C
Fc1ccc(C(Oc2ccc3ncccc3c2)c2ncno2)nc1 (stereo not shown) | 100 to 104 °C
CO/N=C/c1ccnc(C(Oc2cc(Cl)c3ncccc3c2)c2nnco2)c1 (stereo not shown) | 166 to 168 °C
Fc1ccc(C(Oc2cnc3ncccc3c2)c2nnco2)nc1 (stereo not shown) | 154 to 158 °C
CO/N=C/c1ccnc(C(Oc2cc(Br)c3ncccc3c2)c2nnco2)c1 (stereo not shown) | 165 to 167 °C
[O-][n+]1cccc2cc(OC(c3ccc(F)cn3)c3nnco3)ccc21 (stereo not shown) | 176 to 177 °C
Fc1ccc(C(Oc2cccc3ncccc23)c2nnco2)nc1 (stereo not shown) | 198 to 200 °C
CCO/N=C/c1ccnc(C(Oc2cc(F)c3ncccc3c2)c2nnco2)c1 (stereo not shown) | 168 to 171 °C
CCO/N=C/c1cnc2ccc(OC(c3ccc(F)cn3)c3nnco3)cc2c1 (stereo not shown) | 130 to 133 °C
c1ccc(C(Oc2cc3cccnc3cn2)c2nnco2)cc1 (stereo not shown) | 136 to 139 °C
CC(C)O/N=C/c1ccnc(C(Oc2cc(F)c3ncccc3c2)c2nnco2)c1 (stereo not shown) | 126 to 129 °C

SMILES | melting point
CC(C)O/N=C/c1cc(OC(c2ccc(F)cn2)c2nnco2)cc2cccnc12 (stereo not shown) | 158 to 159 °C
c1ccc(C(Sc2ccc3ncccc3c2)c2nnco2)cc1 (stereo not shown) | 126 to 130 °C
c1ccc(C(Oc2cnc3ccccc3c2)c2nnco2)cc1 (stereo not shown) | 108 to 110 °C
Fc1ccc(C(Oc2ccc3ncccc3c2)c2ncon2)nc1 (stereo not shown) | 115 to 119 °C
Cc1nnc(C(Oc2ccc3ncccc3c2)c2ccccc2)o1 (stereo not shown) | 114 to 116 °C
Fc1ccc(C(Oc2ccc3ncccc3c2)c2nncs2)nc1 (stereo not shown) | 92 to 94 °C
[O-][n+]1cc(F)ccc1C(Oc1ccc2c(ccc[n+]2[O-])c1)c1nnco1 (stereo not shown) | 224 to 226 °C
CO/N=C/c1cnc2ccc(OC(c3ccc(F)cn3)c3nnco3)cc2c1 (stereo not shown) | 148 to 152 °C
CO/N=C/c1cc(OC(c2ccc(F)cn2)c2nnco2)cc2cccnc12 (stereo not shown) | 164 to 166 °C
Fc1ccc(C(Oc2cc(Br)c3ncccc3c2)c2nnco2)nc1 (stereo not shown) | 176 to 182 °C
c1ccc(C(Oc2ccc3ncccc3c2)c2ccco2)cc1 (stereo not shown) | 215 °C (dec.)
Fc1ccc(C(Oc2ccc3ncccc3c2)c2ncco2)nc1 (stereo not shown) | 104 to 110 °C
c1ccc(C(Oc2ccc3ncccc3c2)c2ncon2)cc1 (stereo not shown) | 138 to 140 °C
CCO/N=C/c1cc(OC(c2ccc(F)cn2)c2nnco2)cc2cccnc12 (stereo not shown) | 182 to 184 °C
CSc1cnc2ccc(OC(c3cc(Cl)c(Cl)cn3)c3nnco3)cc2c1 (stereo not shown) | 179 to 181 °C
c1ccc(C(Oc2ccc3ncccc3c2)c2ccccn2)cc1 (stereo not shown) | 71 to 73 °C
c1ccc(C(Oc2ccc3ncccc3c2)c2nncs2)cc1 (stereo not shown) | 149 to 151 °C
c1ccc(C(Nc2ccc3ncccc3c2)c2nnco2)cc1 (stereo not shown) | 161 to 163 °C

Second part, the compound after the results:

melting point | SMILES
136 to 139 °C | Cc1cnc2ccc(OC(c3ccc(Br)cn3)c3ncco3)cc2c1 (stereo not shown)
53 to 55 °C | Brc1c(OC(c2ccccc2)c2ncon2)ccc2ncccc12 (stereo not shown)
136 to 138 °C | CO/N=C/c1cnc2ccc(O[C@H](c3ccc(F)cn3)c3nnco3)cc2c1
147 to 150 °C | Fc1ccc(C(Oc2cc(/C=C/C(F)(F)F)c3ncccc3c2)c2nnco2)nc1 (stereo not shown)
172 to 173 °C | CO/N=C/c1cnc2ccc(OC(c3ccc(F)cn3)c3nnco3)c(Br)c2c1 (stereo not shown)
128 to 130 °C | C#CCO/N=C/c1ccnc(C(Oc2cc(F)c3ncccc3c2)c2nnco2)c1 (stereo not shown)
60 to 62 °C | FC(F)Oc1ccc(C(Oc2ccc3ncccc3c2)c2nncs2)nc1 (stereo not shown)
136 to 137 °C | CO/N=C/c1cnc2ccc(O[C@@H](c3ccc(F)cn3)c3nnco3)cc2c1
111 to 113 °C | Cn1nnnc1C(Oc1ccc2ncccc2c1)c1ccccc1 (stereo not shown)
103 to 107 °C | CCOC(=O)c1coc(C(Oc2ccc3ncccc3c2)c2ccccc2)n1 (stereo not shown)
174 to 177 °C | CO/N=C/c1ccnc(C(Oc2cc(F)c3ncccc3c2)c2nnco2)c1 (stereo not shown)
214 to 217 °C | Clc1ccc(C(Nc2ccc3ncc(Br)cc3c2)c2nnco2)nc1 (stereo not shown)
136 to 137 °C | Brc1cnc2ccc(OC(c3ccccc3)c3ncco3)cc2c1 (stereo not shown)
151 to 152 °C | Clc1ccc(C(Nc2ccc3ncccc3c2)c2nnco2)cc1 (stereo not shown)
130 to 134 °C | CC(C)(O)c1coc(C(Oc2ccc3ncccc3c2)c2ccccc2)n1 (stereo not shown)
112 to 115 °C | CC(C)O/N=C/c1cnc2ccc(OC(c3ccc(F)cn3)c3nnco3)cc2c1 (stereo not shown)
